# “Also recorded” adds a separate entry of the source. Where two headings read alike, the source gives them in different places.
# Tests used:
# [1] = biological target: RXRα (Homo sapiens, UniProt P19793); settings: CV-1 cells, 20 hours, luciferase
# Experimental: To determine whether a RXR agonist can mediate its effects via RXRα receptor homodimers, RXRβ receptor homodimers, RXRγ receptor homodimers, or any combination thereof, or the corresponding RAR/RXR heterodimers, receptor-mediated transactivation assays were performed. For transactivation assays assessing RXR homodimer signaling, CV-1 cells were transfected with 1) an expression construct including a full length RXRα, RXRβ, or RXRγ; and 2) a rCRBPII/RXRE-tk-Luc reporter construct that included RXR homodimer-specific RXRE/DR1 responsive element linked to a luciferase gene. For transactivation assays assessing RAR/RXR heterodimer signaling, CV-1 cells were transfected with 1) an expression construct comprising a fusion protein including an estrogen receptor (ER) DNA binding domain linked to the ligand binding domain of RARα, RARβ, or RARγ and 2) a ERE-tk-Luc reporter construct that included an estrogen receptor responsive element linked to a luciferase gene. […] Data are mean values±SE from five independent experiments.
# [2] = biological target: T1, RXRγ (Homo sapiens, UniProt P48443); assay: RXR homodimer transactivation assay (rCRBPII/RXRE-tk-Luc reporter) in CV-1 cells; type: cell-based
# T1 construct: an expression construct including a full length RXRα, RXRβ, or RXRγ; expressed in transfected cells; host or cells: CV-1
# Experimental: To determine whether a RXR agonist can mediate its effects via RXRα receptor homodimers, RXRβ receptor homodimers, RXRγ receptor homodimers, or any combination thereof, or the corresponding RAR/RXR heterodimers, receptor-mediated transactivation assays were performed. For transactivation assays assessing RXR homodimer signaling, CV-1 cells were transfected with 1) an expression construct including a full length RXRα, RXRβ, or RXRγ; and 2) a rCRBPII/RXRE-tk-Luc reporter construct that included RXR homodimer-specific RXRE/DR1 responsive element linked to a luciferase gene. For transactivation assays assessing RAR/RXR heterodimer signaling, CV-1 cells were transfected with 1) an expression construct comprising a fusion protein including an estrogen receptor (ER) DNA binding domain linked to the ligand binding domain of RARα, RARβ, or RARγ and 2) a ERE-tk-Luc reporter construct that included an estrogen receptor responsive element linked to a luciferase gene. The ER-RAR fusion proteins provided an accurate readout of only the transfected ER-RAR. […] Data are mean values±SE from five independent experiments.
# [3] = biological target: T2, FXR/RXR (Homo sapiens, UniProt P19793); assay: Permissive heterodimer transactivation assay, CV-1 cells, 3x(IBABP/IRI)-tk-Luc; type: cell-based; settings: 20 hr; relative to GW4064
# T2 construct: expressed in transfected cells; host or cells: CV-1
# Excerpt: (§1) For PPARγ: CV-1 cells were transfected with 3×(rAOX/DR1)-tk-Luc reporter gene and an expression vector for PPARγ. For FXR:CV-1 cells were transfected with 3×(IBABP/IRI)-tk-Luc reporter gene and vectors for FXR and RXRα. For LXR:CV-1 cells were transfected with 3×(PLTP/LXRE)-tk-Luc reporter gene with vectors for LXRα or LXRβ. For Nurr1: COS7 cells were transfected with 3×NBRE-tk-luc reporter gene and full length Nurr-1 with or without full-length RXRα plasmid. […] Luciferase data were normalized to co-transfected β-gal activity. Luciferase activity was expressed as percent of maximal activity obtained using specific agonists. Rosiglitazone (PPARγ), GW4064 (FXR), T0901317 (LXR).
# [4] = tested on: LXRα/RXR; assay: Permissive heterodimer transactivation assay, CV-1 cells, 3x(PLTP/LXRE)-tk-Luc; type: cell-based; settings: 20 hr; relative to T0901317
# Excerpt: as §1
# [5] = tested on: LXRβ/RXR; assay: as above; type: cell-based; settings: 20 hr; relative to T0901317
# Excerpt: as §1
# [6] = biological target: Nurr1/RXR (Homo sapiens, UniProt P19793); assay: Permissive heterodimer transactivation assay, COS7 cells, 3xNBRE-tk-luc; type: cell-based; settings: Nurr-1 with RXRα
# Excerpt: as §1
# [7] = tested on: H446; assay: In vitro growth inhibition, soft-agar; type: cell-based
# Experimental: (§2) The inhibition of growth was tested in a variety of cancer cell lines.
# (§3) All cell lines were obtained from American Type Culture Collection (ATCC, Manassas, Va.) and culture media and supplements were supplied by ATCC and Invitrogen (Carlsbad, Calif.). The ATP assay was performed using […]-GLO Luminescent Cell Viability Assay Kit from Promega (Madison, Wis.) which allows ATP to be roughly quantified based on the […] emitted by the cells. Luminescence was recorded using VICTOR-22 1420 (Perkin Elmer, Waltham, Mass.).
# (§4) The soft-agar coupled thymidine incorporation assay is used to determine the ability of cells to form colonies through invasion into agar matrix. A bottom feeder layer of cells was composed of 0.6% NUSIEVE GTG agarose (Cambrex, East Rutherford, N.J.), D-MEM with low glucose, 2 mM L-glutamine, and 15% charcoal/dextran-treated FBS. Test cells were seeded in the top soft-agar layer containing 0.3% NUSIEVE GTG agarose, D-MEM (low glucose), 2 mM L-glutamine, and 15% charcoal/dextran-treated FBS at a density of 10,000-20,000 cells per well. Test cells were labeled with [^3H] thymidine at 50 nM. Labeled cells were collected and counted as described above.
# (§5) For the soft-agar colony formation assay, cells were cultured in 6-well plates containing two agar layers with growth medium. The bottom feeder layer contained 0.5% DIFCO Noble Agar (Becton Dickinson & Co., East Rutherford, N.J.), D-MEM with low glucose and 2 mM L-glutamine, and 15% charcoal/dextran-treated FBS. Test cells were seeded in the top soft-agar layer containing 0.3% agarose, D-MEM (low glucose), 2 mM L-glutamine, and 15% charcoal/dextran-treated FBS at a density of 10,000 cells per well. After treatment with drugs, cell colonies were counted under a light microscope.
# (§6) Efficacy is the maximal inhibition of cell growth at the maximal concentration used in the studies. ND means the results were not determined.
# [8] = tested on: T47D; assay: In vitro growth inhibition, soft-agar; type: cell-based
# Experimental: as §2, §3, §4, §5, §6
# [9] = tested on: A-427; assay: In vitro growth inhibition, ATP assay ([…]-GLO); type: cell-based
# Experimental: as §2, §3, §6
# [10] = tested on: HT-3; assay: In vitro growth inhibition, ATP assay ([…]-GLO); type: cell-based
# Experimental: as §2, §3, §6
# [11] = tested on: HuT 78; assay: In vitro growth inhibition, ATP assay ([…]-GLO); type: cell-based
# Experimental: as §2, §3, §6
# [12] = tested on: MCF-7; assay: In vitro growth inhibition, ATP assay ([…]-GLO); type: cell-based
# Experimental: as §2, §3, §6
# [13] = tested on: ME-180; assay: In vitro growth inhibition, ATP assay ([…]-GLO); type: cell-based
# Experimental: as §2, §3, §6
# [14] = tested on: SK-BR-3; assay: In vitro growth inhibition, ATP assay ([…]-GLO); type: cell-based
# Experimental: as §2, §3, §6
# [15] = tested on: SW403; assay: In vitro growth inhibition, ATP assay ([…]-GLO); type: cell-based
# Experimental: as §2, §3, §6
# [16] = tested on: SiHa; assay: In vitro growth inhibition, ATP assay ([…]-GLO); type: cell-based
# Experimental: as §2, §3, §6
# [17] = tested on: T47D; assay: In vitro growth inhibition, ATP assay ([…]-GLO); type: cell-based
# Experimental: as §2, §3, §6
# [18] = tested on: U937; assay: In vitro growth inhibition, ATP assay ([…]-GLO); type: cell-based
# Experimental: as §2, §3, §6
# [19] = tested on: H-82; assay: In vitro growth inhibition, [3H] thymidine incorporation; type: cell-based
# Experimental: as §2, §3
# (§7) The thymidine incorporation assay allows for specific detection of [^3H]-labeled thymidine (Perkin-Elmer) incorporated into newly synthesized DNA. Labeled cells were collected and their DNA was harvested on to a fiberglass filter using MLR24 Cell Harvester (Brandel, Geithersburg, Md.). The amount of incorporated [^3H] thymidine was determined by scintillation counting using Trilux-1450 Microbeta Counter (Perkin-Elmer).
# as §6
# [20] = tested on: HL-60; assay: as above; type: cell-based
# Experimental: as §2, §3, §7, §6
# [21] = tested on: SW48; assay: In vitro growth inhibition, cell counting; type: cell-based; settings: SW48, Colon, maximal inhibition at 1 μM
# [22] = tested on: refractory malignancies (progressive, solid tumors); assay: Phase I/II study of IRX4204 in refractory malignancies; type: in vivo, Humans
# Excerpt: Data was collected for 18 patients with progressive, solid tumors.
# [23] = cited from earlier work
# [24] = Homo sapiens, Breast ER-positive
# T2 sequence (Q96RI1 whole entry partner): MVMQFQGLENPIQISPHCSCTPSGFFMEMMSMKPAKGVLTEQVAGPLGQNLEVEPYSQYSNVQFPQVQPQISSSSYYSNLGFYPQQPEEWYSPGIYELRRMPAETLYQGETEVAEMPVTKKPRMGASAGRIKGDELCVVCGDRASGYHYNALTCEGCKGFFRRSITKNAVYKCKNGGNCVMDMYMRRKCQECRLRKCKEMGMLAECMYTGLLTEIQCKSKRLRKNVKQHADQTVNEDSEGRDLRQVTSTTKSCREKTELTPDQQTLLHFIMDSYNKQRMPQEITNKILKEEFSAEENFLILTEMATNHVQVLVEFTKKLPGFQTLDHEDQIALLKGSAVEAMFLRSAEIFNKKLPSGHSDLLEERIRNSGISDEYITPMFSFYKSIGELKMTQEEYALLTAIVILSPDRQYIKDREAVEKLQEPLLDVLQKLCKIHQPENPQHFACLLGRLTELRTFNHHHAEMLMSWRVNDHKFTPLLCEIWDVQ
# T2 sequence (P19793 whole entry): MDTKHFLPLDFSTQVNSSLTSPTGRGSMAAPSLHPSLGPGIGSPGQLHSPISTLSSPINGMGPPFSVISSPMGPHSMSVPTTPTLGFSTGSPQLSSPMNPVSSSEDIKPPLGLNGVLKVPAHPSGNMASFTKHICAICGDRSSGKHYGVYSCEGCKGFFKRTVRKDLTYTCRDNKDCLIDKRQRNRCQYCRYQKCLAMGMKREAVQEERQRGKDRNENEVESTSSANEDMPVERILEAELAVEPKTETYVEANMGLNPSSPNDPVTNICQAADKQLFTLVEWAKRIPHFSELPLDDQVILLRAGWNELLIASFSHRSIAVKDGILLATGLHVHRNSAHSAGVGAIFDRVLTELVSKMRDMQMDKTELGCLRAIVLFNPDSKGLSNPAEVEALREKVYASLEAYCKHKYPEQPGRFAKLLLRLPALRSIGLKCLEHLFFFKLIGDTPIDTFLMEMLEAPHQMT
# T1 sequence (P48443 whole entry): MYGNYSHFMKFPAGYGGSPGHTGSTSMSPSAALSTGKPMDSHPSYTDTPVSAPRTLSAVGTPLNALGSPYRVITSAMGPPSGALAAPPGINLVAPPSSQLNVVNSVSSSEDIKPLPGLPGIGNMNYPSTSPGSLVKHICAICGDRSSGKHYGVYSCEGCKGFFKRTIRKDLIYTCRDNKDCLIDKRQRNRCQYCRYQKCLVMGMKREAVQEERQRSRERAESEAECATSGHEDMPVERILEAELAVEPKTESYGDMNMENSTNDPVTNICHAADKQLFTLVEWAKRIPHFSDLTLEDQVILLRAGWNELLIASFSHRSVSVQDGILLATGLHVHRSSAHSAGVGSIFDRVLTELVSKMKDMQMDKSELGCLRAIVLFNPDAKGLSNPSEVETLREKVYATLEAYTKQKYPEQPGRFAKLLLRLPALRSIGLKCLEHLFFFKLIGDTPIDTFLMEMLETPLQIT
# Sequence of RXRα (P19793 whole entry, the tested form may be a part): as the sequence (P19793 whole entry) above
# Sequence of Nurr1/RXR (P43354 whole entry partner): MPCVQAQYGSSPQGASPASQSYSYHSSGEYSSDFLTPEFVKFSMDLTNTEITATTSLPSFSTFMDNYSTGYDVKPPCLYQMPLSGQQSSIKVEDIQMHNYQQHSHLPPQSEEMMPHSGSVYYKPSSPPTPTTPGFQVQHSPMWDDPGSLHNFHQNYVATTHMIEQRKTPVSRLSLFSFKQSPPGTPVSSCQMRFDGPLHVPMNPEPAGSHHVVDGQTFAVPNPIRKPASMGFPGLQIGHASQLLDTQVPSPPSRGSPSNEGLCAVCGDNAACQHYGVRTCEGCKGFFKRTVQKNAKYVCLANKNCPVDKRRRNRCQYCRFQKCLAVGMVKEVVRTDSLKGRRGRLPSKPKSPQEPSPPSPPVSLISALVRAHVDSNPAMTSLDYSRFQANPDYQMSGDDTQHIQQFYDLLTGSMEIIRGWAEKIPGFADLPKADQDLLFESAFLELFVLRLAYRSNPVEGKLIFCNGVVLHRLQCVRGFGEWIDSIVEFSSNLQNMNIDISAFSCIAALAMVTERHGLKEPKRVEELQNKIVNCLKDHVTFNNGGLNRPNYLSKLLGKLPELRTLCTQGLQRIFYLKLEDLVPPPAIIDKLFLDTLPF
# Sequence of Nurr1/RXR (P19793 whole entry): as the sequence (P19793 whole entry) above
smiles,measurement,setting,value
"CC(/C=C/[C@@H]1C[C@]1(C)c1ccc2c(c1)C(C)(C)CCC2(C)C)=C\C(=O)O [IRX4204, 3,7-dimethyl-6(S),7(S)-methano,7-[1,1,4,4-tetramethyl-1,2,3,4-tetrahydronaphth-7-yl]2(E),4(E) heptadienoic acid]",Efficacy (% of 1 μM IRX4204) RXRα,[1],100 % of 1 μM IRX4204
same,Efficacy (% of 1 μM IRX4204) RXRγ,[2],0.09 ± 0.01 100 % of 1 μM IRX4204
same,activation of FXR/RXR heterodimer,[3],not to transactivate; also recorded: does not activate
same,activation of LXRα/RXR heterodimer,[4],not to transactivate; also recorded: does not activate
same,activation of LXRβ/RXR heterodimer,[5],not to transactivate; also recorded: does not activate
same,activation of Nurr1/RXR permissive heterodimer,[6],selectively activates
same,Efficacy (Conc.),"[7]; H446, Soft-Agar, maximal inhibition at 1 μM",44%
same,IC50,"[7]; Homo sapiens, NCI-H446, H446, Small Cell Lung Cancer, Soft-Agar",17 nM
same,IC50,[8]; [24],12.6 nM
same,Efficacy (Conc.),[8]; maximal inhibition at 10 μM,97%
same,Efficacy (Conc.),"[9]; A-427, ATP, maximal inhibition at 10 μM",50%
same,IC50,"[9]; Homo sapiens, A-427, Non-Small Cell Lung Cancer, ATP",7.7 nM
same,Efficacy (Conc.),"[10]; HT-3, ATP, maximal inhibition at 1 μM",68%
same,IC50,"[10]; Homo sapiens, HT-3, Cervical, ATP",< 1000 nM
same,IC50,"[11]; Homo sapiens, HuT78, HuT 78, Cutaneous T-Cell Lymphoma, ATP, 50% of maximal inhibition",1.6 nM
same,Efficacy (Conc.),"[11]; HuT 78, ATP, maximal inhibition at 1 μM",81%
same,IC50,"[12]; Homo sapiens, MCF7, MCF-7, Breast ER-positive, ATP",52 nM
same,Efficacy (Conc.),"[12]; MCF-7, ATP, maximal inhibition at 1 μM",52%
same,IC50,"[13]; Homo sapiens, ME-180, Cervical, ATP",7 nM
same,Efficacy (Conc.),"[13]; ME-180, ATP, maximal inhibition at 1 μM",80%
same,IC50,"[14]; Homo sapiens, SK-BR-3, Breast ER-negative, ATP",3 nM
same,Efficacy (Conc.),"[14]; SK-BR-3, ATP, maximal inhibition at 1 μM",74%
same,IC50,"[15]; Homo sapiens, SW-403, SW403, Colon, ATP",0.78 nM
same,Efficacy (Conc.),"[15]; SW403, ATP, maximal inhibition at 1 μM",35%
same,IC50,"[16]; Homo sapiens, Cervical",47 nM
same,Efficacy (Conc.),[16]; maximal inhibition at 1 μM,41%
same,IC50,[17]; [24],75 nM
same,Efficacy (Conc.),[17]; maximal inhibition at 1 μM,97%
same,IC50,"[18]; Homo sapiens, U-937, U937, Leukemia, ATP",0.73 nM
same,Efficacy (Conc.),"[18]; U937, ATP, maximal inhibition at 1 μM",94%
same,Efficacy (Conc.),"[19]; H-82, thymidine incorporation, maximal inhibition at 1 μM",72%
same,IC50,"[19]; Homo sapiens, NCI-H82, H-82, Small Cell Lung Cancer, [H3] Thymidine Incorporation",3.6 nM
same,Efficacy (Conc.),"[20]; HL-60, thymidine incorporation, maximal inhibition at 1 μM",94%
same,IC50,"[20]; Homo sapiens, HL-60, Leukemia, [H3] Thymidine Incorporation",15 nM
same,Efficacy (Conc.),[21],60%
same,patients who did not exhibit tumor progression for at least four months,"[22]; 18 patients with progressive, solid tumors, 9 patients",50%
same,adverse events recorded,"[22]; patients, once-daily oral 3, 6, 12, 24 mg/m^2, minimum four weeks",triglyceride elevation and hypothyroidism
same,serious adverse events related to IRX4204,"[22]; patients, once-daily oral 3, 6, 12, 24 mg/m^2, minimum four weeks, 18 patients",no serious adverse events considered possibly or probably related to IRX4204
"C=C(c1ccc(C(=O)O)cc1)c1cc2c(cc1C)C(C)(C)CCC2(C)C [bexarotene, 4-[1-(3,5,5,8,8-pentamethyl-6,7-dihydronaphthalen-2-yl)ethenyl]benzoic acid]",Cmax,"[23]; dose of 400 mg/m^2/d, read-out: Cmax in the blood (estimated)",~8 µM
same,Cmax,"[23]; lower dose 225 mg/m^2/d, read-out: Cmax (estimated)",~2 µM

# From patent US20190365681A1, “TREATMENT OF CANCER WITH COMBINATIONS OF RXR AGONISTS AND THYROID HORMONES” (Io Therapeutics, Inc., priority 2015, published 2019)
